According to patent US20260083865A1, “PROSTATE SPECIFIC MEMBRANE ANTIGEN (PSMA) LIGANDS AND USE THEREOF” (priority 2022, published 2026):
Where two headings read alike, the source gives them in different places. Each block holds one molecule with its values, some of them ahead of it. Numbered stars: 1 amine (or outer) side, 2 acyl side, 3 side chain; on linkers, the order of the positions; unused ones are H or OH. Bridge positions count the residues as written; N and C are the ends. Square brackets hold non-standard residues; d marks the D form. Peptide text beside a SMILES is read from it. * marks the point of attachment. DOTA = O=C(O)CN1CCN(CC(=O)O)CCN(CC(=O)*)CCN(CC(=O)O)CC1; Tyr(3-I) = N[C@@H](Cc1ccc(O)c(I)c1)C(=O)O; Phe(4-Cl) = N[C@@H](Cc1ccc(Cl)cc1)C(=O)O; Arg(Me) = CNC(=N)NCCC[C@H](N)C(=O)O; X4 = O=C(CN1CCC(N[*:1])CC1)[*:2]; X1 = O=C(CC1CCN([*:1])CC1)[*:2]; Lys(Me) = CNCCCC[C@H](N)C(=O)O; Tle = CC(C)(C)[C@H](N)C(=O)O; Nle = CCCC[C@H](N)C(=O)O; Aib = CC(C)(N)C(=O)O; Guanidino = N=C(N)N*; X8 = O=C(CC1CCNCC1)*

Columns and labels:
[1] = biological target: T1, PSMA-expressing C4-2 cells (Homo sapiens, UniProt Q04609); assay: FACS binding assay (competition with 50 nM PSM-0183)
T1 construct: PSMA-expressing C4-2 cells (ATCC, Cat. No. CRL-3314) were cultured in RPMI-1640; host or cells: C4-2 cells
T1 sequence (Q04609 whole entry): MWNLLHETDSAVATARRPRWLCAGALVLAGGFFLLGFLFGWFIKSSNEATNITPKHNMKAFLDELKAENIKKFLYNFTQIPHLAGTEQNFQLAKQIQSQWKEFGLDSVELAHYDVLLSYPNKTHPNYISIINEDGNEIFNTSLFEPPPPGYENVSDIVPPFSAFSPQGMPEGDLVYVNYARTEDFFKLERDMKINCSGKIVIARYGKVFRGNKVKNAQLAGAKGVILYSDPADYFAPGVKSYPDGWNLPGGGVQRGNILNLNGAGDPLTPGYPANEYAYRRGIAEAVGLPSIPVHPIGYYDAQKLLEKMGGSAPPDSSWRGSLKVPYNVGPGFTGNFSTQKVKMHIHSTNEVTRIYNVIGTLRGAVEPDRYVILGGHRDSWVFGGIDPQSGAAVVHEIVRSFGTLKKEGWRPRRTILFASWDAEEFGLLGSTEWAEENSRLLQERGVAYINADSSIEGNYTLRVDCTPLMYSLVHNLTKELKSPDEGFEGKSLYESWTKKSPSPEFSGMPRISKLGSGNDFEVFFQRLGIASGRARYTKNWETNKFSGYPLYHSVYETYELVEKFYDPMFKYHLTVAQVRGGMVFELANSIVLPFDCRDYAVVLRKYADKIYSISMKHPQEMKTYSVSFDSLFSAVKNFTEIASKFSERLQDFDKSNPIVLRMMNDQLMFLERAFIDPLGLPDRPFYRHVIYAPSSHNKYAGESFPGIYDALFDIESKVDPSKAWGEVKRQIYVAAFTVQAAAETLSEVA
In short: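 Competition format: fluorescent tracer PSM-0183 (50 nM) displaced from PSMA on C4-2 cells by a test compound titration over 1 h at 4 °C. Bound tracer was quantified as flow-cytometric AF488 median fluorescence after washing. Four-parameter logistic fits of MFI data gave IC50 and pIC50.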

[2] = biological target: T2, Fc-fusion protein of human PSMA (hPSMA-Fc) (Homo sapiens, UniProt Q04609); assay: Surface plasmon resonance assay (Biacore T200, single cycle kinetic); format: binding
T2 construct: purchased Acro Biosystems PSA-H5264
T2 sequence (Q04609 44-750 limits assumed): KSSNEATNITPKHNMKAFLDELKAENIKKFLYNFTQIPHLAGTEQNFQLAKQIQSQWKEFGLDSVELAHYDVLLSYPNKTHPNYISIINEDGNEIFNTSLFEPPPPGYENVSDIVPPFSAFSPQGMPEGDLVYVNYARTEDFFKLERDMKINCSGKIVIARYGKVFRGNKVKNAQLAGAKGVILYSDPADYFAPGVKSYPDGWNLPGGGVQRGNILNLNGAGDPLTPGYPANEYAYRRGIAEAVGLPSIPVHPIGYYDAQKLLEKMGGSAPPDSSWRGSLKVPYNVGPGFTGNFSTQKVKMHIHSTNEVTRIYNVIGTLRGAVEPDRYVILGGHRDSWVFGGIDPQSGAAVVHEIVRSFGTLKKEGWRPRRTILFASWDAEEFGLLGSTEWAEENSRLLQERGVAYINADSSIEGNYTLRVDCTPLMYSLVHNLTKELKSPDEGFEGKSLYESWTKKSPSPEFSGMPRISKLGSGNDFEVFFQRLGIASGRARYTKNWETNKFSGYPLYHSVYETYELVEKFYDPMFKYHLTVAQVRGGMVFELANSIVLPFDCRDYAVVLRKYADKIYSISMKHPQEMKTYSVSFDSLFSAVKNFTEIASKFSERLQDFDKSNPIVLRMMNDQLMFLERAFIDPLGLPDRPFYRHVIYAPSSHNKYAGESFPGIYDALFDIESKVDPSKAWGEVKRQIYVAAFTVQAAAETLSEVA
In short: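 KD, expressed as pKD, came from 1:1 Langmuir fits of reference- and buffer-blank-subtracted SPR data. The runs were single-cycle kinetics at 25° C in HBST/0.1% DMSO over human PSMA-Fc, captured to ~1000 RU on a peptide-coated CM5 surface and regenerated with 10 mM glycine pH 1.5.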

[3] = FACS binding, C4-2 cells, competition with 50 nM PSM-0183, category, read-out: pIC50 [C4-2] CAT (converted)
[4] = SPR, hPSMA-Fc, single cycle kinetic, 25° C., category, read-out: pKD CAT (converted)
[5] = pIC50 category of FACS binding, C4-2 cells, read-out: pIC50 [C4-2] CAT (converted)
[6] = pKD category for PSMA SPR activity assay, hPSMA-Fc, 25° C., read-out: pKD CAT (converted)

pIC50 [C4-2] CAT ([1]; FACS binding, PSMA-expressing C4-2 cells, pIC50 category): A (pIC50 values >6.7)
Kd ([2]; PSMA SPR assay, hPSMA-Fc, 25° C., pKD category, read-out: pKD CAT (converted)): 12.6 to 126 nM
SMILES: CC(=O)N[C@H](C(=O)NC(C)(C)C(=O)N[C@@H](Cc1ccccc1)C(=O)N[C@H]1CSSC[C@@H](C(=O)N[C@H](C(=O)N[C@H](C(=O)N[C@@H](CC(=O)O)C(N)=O)[C@@H](C)O)C(C)(C)C)NC(=O)[C@H](CC(N)=O)NC(=O)[C@H](C)NC(=O)[C@H](CCCNC(=N)N)NC(=O)[C@H](CCCCN)NC1=O)[C@@H](C)O [PSM-0315, Ac-Thr-Aib-Phe-[Cys-Lys-arg-Als-Asn-Cys]-Tle-Thr-Asp-NH2] (Ac-T[Aib]FCKRANC[Tle]TD-NH2; disulfide 4-9)

SMILES: CC(=O)NC(C)(C)C(=O)N[C@@H](Cc1ccc(Cl)cc1)C(=O)N[C@H]1CSSC[C@@H](C(=O)N[C@H](C(=O)N[C@H](C(=O)N2CCC(CC(=O)N[C@H](CCCCNC(=O)CN3CCN(CC(=O)O)CCN(CC(=O)O)CCN(CC(=O)O)CC3)C(N)=O)CC2)[C@@H](C)O)C(C)(C)C)NC(=O)[C@H](CC(N)=O)NC(=O)C(C)(C)NC(=O)[C@H](CCC(=O)NC(=N)N)NC(=O)[C@H](CCCCN)NC1=O [PSM-0494, Ac-Aib-Pcf-[Cys-Lys-Gln(Gu)-Aib-Asn-Cys]-Tle-Thr-Cmp-lys(DOTA)-NH2] (Ac-[Aib][Phe(4-Cl)]CKE(Guanidino)[Aib]NC[Tle]T[X1][dK](DOTA)-NH2; disulfide 3-8)
IC50 [1]: < 200 nM
Kd [2]: 12.6 to 126 nM

IC50 [1, 3]: < 200 nM
Kd [2, 4]: < 12.6 nM
SMILES: CC(=O)N[C@H](C(=O)NC(C)(C)C(=O)N[C@@H](Cc1ccccc1)C(=O)N[C@H]1CSSC[C@@H](C(=O)N[C@H](C(=O)N[C@H](C(=O)NC2CCN(CC(=O)N[C@H](CCCCNC(=O)CN3CCN(CC(=O)O)CCN(CC(=O)O)CCN(CC(=O)O)CC3)C(N)=O)CC2)[C@@H](C)O)C(C)(C)C)NC(=O)[C@H](CC(N)=O)NC(=O)C(C)(C)NC(=O)[C@H](CCCNC(=N)N)NC(=O)[C@H](CCCCN)NC1=O)[C@@H](C)O [PSM-0191, Ac-Thr-Aib-Phe-[Cys-Lys-Arg-Aib-Asn-Cys]-Tle-Thr-APAc-lys(DOTA)-NH2] (Ac-T[Aib]FCKR[Aib]NC[Tle]T[X4][dK](DOTA)-NH2; disulfide 4-9)

IC50 [1, 3]: > 3160 nM
Kd [2, 4]: > 501 nM
SMILES: CNCCCC[C@@H]1NC(=O)[C@@H](NC(=O)[C@H](Cc2ccc(O)c(I)c2)NC(=O)C(C)(C)NC(=O)[C@@H](NC(=O)CC2CCNCC2)[C@@H](C)O)CSSC[C@@H](C(=O)N[C@H](C(=O)N[C@H](C(N)=O)[C@@H](C)O)C(C)(C)C)NC(=O)[C@H](CC(N)=O)NC(=O)C(C)(C)NC(=O)[C@H](CCCNC(=N)NC)NC1=O [PSM-0192, H-Cmp-Thr-Aib-Miy-[Cys-Lys(Me)-Arg(Me)-Aib-Asn-Cys]-Tle-Thr-NH2] (X8-T[Aib][Tyr(3-I)]C[Lys(Me)][Arg(Me)][Aib]NC[Tle]T-NH2; disulfide 4-9)

IC50 ([1]; FACS binding, C4-2 cells, category, read-out: pIC50 [C4-2] CAT (converted)): > 3160 nM
Kd ([2]; PSMA SPR assay, category, read-out: pKD CAT (converted)): > 501 nM
SMILES: CCCC[C@H](NC(=O)[C@@H]1CSSC[C@H](NC(=O)[C@H](Cc2ccccc2)NC(=O)[C@H](C)NC(=O)[C@@H](NC(C)=O)[C@@H](C)O)C(=O)N[C@@H](CCCCN)C(=O)N2CCC[C@H]2C(=O)N[C@@H](C)C(=O)N[C@@H](CC(N)=O)C(=O)N1)C(=O)N[C@H](C(=O)N[C@@H](CC(=O)O)C(N)=O)[C@@H](C)O [PSM-0564, Ac-Thr-Als-Phe-[Cys-Lys-Pro-Ala-Asn-Cys]-Nle-Thr-Asp-NH2] (Ac-TAFCKPANC[Nle]TD-NH2; disulfide 4-9)

IC50 [1, 5]: < 200 nM
Kd [2, 6]: 12.6 to 126 nM
SMILES: CCCC[C@H](NC(=O)[C@@H]1CSSC[C@H](NC(=O)[C@H](Cc2ccccc2)NC(=O)[C@@H]2CCCN2C(=O)[C@@H](NC(C)=O)[C@@H](C)O)C(=O)N[C@@H](CCCCN)C(=O)N[C@@H](CCCNC(=N)N)C(=O)N[C@@H](C)C(=O)N[C@@H](CC(N)=O)C(=O)N1)C(=O)N[C@H](C(=O)N[C@@H](CC(=O)O)C(N)=O)[C@@H](C)O [PSM-0547, Ac-Thr-Pro-Phe-[Cys-Lys-Arg-Ala-Asn-Cys]-Nle-Thr-Asp-NH2] (Ac-TPFCKRANC[Nle]TD-NH2; disulfide 4-9)

IC50 [1, 5]: < 200 nM
Kd [2, 6]: < 12.6 nM
SMILES: CNCCCC[C@@H]1NC(=O)[C@@H](NC(=O)[C@H](Cc2ccc(Cl)cc2)NC(=O)C(C)(C)NC(=O)[C@@H](NC(=O)CC2CCN(C(=O)CN3CCN(CC(=O)O)CCN(CC(=O)O)CCN(CC(=O)O)CC3)CC2)[C@@H](C)O)CSSC[C@@H](C(=O)N[C@H](C(=O)N[C@H](C(N)=O)[C@@H](C)O)C(C)(C)C)NC(=O)[C@H](CC(N)=O)NC(=O)C(C)(C)NC(=O)[C@H](CCCNC(=N)N)NC1=O [PSM-0410, DOTA-Cmp-Thr-Aib-Pcf-[Cys-Lys(Me)-Arg-Aib-Asn-Cys]-Tle-Thr-NH2] ({DOTA}-[X1]T[Aib][Phe(4-Cl)]C[Lys(Me)]R[Aib]NC[Tle]T-NH2; disulfide 5-10)
